According to patent US20100111874A1, “METHOD OF CANCER DETECTION AND TREATMENT” (University of Medicine and Dentistry of New Jresey, priority 2007, published 2010):

Target: T1, TOP1 (Homo sapiens, UniProt P11387)
T1 construct: endogenous in cells; host or cells: ZR-75-1 and its shRNA clones
T1 sequence (P11387 1-765): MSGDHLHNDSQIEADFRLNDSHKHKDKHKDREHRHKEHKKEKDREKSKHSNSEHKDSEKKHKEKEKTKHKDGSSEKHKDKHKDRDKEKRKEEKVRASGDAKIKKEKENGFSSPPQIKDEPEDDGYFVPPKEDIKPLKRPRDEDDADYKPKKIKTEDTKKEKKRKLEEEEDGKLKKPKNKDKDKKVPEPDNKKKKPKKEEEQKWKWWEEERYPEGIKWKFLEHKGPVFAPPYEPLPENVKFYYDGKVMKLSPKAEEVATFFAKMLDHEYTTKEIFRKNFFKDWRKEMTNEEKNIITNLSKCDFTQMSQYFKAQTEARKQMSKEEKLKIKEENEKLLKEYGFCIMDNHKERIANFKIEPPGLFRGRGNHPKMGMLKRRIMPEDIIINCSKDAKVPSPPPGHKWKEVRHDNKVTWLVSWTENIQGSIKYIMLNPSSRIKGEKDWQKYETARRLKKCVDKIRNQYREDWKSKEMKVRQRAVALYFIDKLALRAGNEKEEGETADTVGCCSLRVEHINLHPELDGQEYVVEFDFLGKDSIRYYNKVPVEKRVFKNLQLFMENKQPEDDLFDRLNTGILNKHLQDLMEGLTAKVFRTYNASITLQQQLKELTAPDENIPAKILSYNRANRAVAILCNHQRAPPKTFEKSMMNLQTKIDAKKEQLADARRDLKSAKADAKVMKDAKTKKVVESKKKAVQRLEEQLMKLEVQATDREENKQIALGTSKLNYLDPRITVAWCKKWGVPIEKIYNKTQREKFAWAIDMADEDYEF
Assay: Immunoblotting assay for CPT-induced TOP1 degradation
Format: cell-based
Details: CPT 25 μM
Protocol: Band depletion assay for TOP1 cleavage complexes. Cells (106/sample) are treated with CPT (25 μM in 1% DMSO) for various times at 37° C. Cells are then lysed with 0.2 N NaOH containing 2 mM EDTA as described previously (14). Cell lysates are then neutralized with 1/10 volume of a solution containing 10% NP-40, 1 M Tris (pH 7.4), 0.1 M MgCl2, 0.1 M CaCl2, 10 mM dithiothreitol, 1 mM EGTA, and a mixture of peptide protease inhibitors (100 μg/ml each of leupeptin, pepstatin, and aprotinin), followed by the addition of another 1/10 volume of 2 N HCl. Reactions are terminated by the addition of SDS-PAGE sample buffer. Immunoblotting analysis of cell lysates is carried out using anti-Scl-70 antibody from scleroderma patients as described above.
Immunoblotting assay for CPT-induced TOP1 degradation. Cells are prepared for immunoblotting as described above with two modifications. First, cells are incubated in CPT-free medium for 30 min prior to lysis (to reverse TOP1 cleavage complexes and to de-conjugate TOP1-ubiquitin and TOP1-UBL conjugates). Second, neutralized cell lysates are incubated with Staphylococcus aureus nuclease S7 (60 U/reaction) for 20 min on ice (to release TOP1 from residual TOP1-DNA covalent complexes) prior to termination with SDS-PAGE sample buffer.
Example No. 3. […] Panel A, Reduced ISG15 expression in ZR-75-1 cells expressing ISG15 shRNA. Cell lysates of ZR-75-1 clones expressing either control shRNA (lane #1) or ISG15 shRNA (lanes #2) are analyzed by 15% SDS-PAGE. Western blotting analysis is performed using anti-ISG15 antisera (upper panel). […] Panel B, CPT sensitivity. Clonogenic survival assay is carried out as described in Materials and Methods. Colonogenic survival curves of a ZR-75-1 clone expressing control shRNA and ISG15 shRNA after CPT treatment is shown. Mean±SD values from at least two experiments are presented. Panel C, CPT-induced TOP1 down-regulation. ZR-75-1 cells stably transfected with control shRNA (lanes 1-4) or ISG15 shRNA (lanes #5-8) (10^6 cells/sample) are treated with either DMSO (lanes #1 and 5) or CPT (25 μM in 1% DMSO) (lanes #2-4 and 6-8) for various times at 37° C. Subsequently, cells are placed in fresh CPT-free media for 30 min to reverse cleavable complexes. Cell lysis and immunoblotting using anti-hTOP1 antisera are carried out as described in FIG. 1 (upper panels).
Example No. 4. […] Panel A, the reduced UbcH8 protein level in ZR-75-1 cells expressing UbcH8 shRNA. Cell lysates prepared from ZR-75-1 clones expressing either control shRNA (lane #1) or UbcH8 shRNA (lanes #2 and 3, from two independent clones), and the purified UbcH8 protein (lane #4) are analyzed by 15% SDS-PAGE. Western blotting analysis is performed using anti-UbcH8 antibody (Abeam). […] Panel B, UbcH8 shRNA decreases ISG15 conjugation in ZR-75-1 cells. Cell lysates prepared from ZR-75-1 clones expressing either control shRNA (lane #1) or UbcH8 shRNA (lanes #2 and 3, two independent clones), and the purified UbcH8 protein (lane #4) are analyzed by 15% SDS-PAGE. Western blotting analysis is performed using anti-ISG15 antibody. The non-specific bands are due to the crossreactivity of the ISG15 antibody to bovine serum albumin. Panel C, knocking down UbcH8 confers CPT resistance. ZR-75-1 clones expressing control shRNA and UbcH8 shRNA (two independent clones) are treated with CPT and cell survival is measured as described in Example 3. Panels D-F, CPT-induced TOP1 down-regulation is […] in ZR-75-1 cells expressing UbcH8 shRNA. Clonal cells of ZR-75-1 expressing control (panel D) or UbcH8 shRNA (panels E and F, representing two independent clones) (10^6/sample) are treated with either DMSO (lanes #1, 5, and 9) or CPT (25 μM in 1% DMSO) (lanes #2-4, 6-8, and 10-12) for various times at 37° C. Cells are then placed in fresh CPT-free media for 30 min to reverse cleavage complexes. Cell lysis and immunoblotting using anti-hTOP1 antibody are carried out as described in Example 1.

CC[C@@]1(O)C(=O)OCc2c1cc1n(c2=O)Cc2cc3ccccc3nc2-1 [CPT, camptothecin]
TOP1 down-regulation (MCF7/RC cells): increased | TOP1 down-regulation (ZR/ISG15-shRNA1 cells, 2 hrs): about 50% | degradation of TOP1 (ZR/UbcH8-shRNA1 cells, 2 hrs): about 50% | degradation of TOP1 (ZR/UbcH8-shRNA2 cells, 2 hrs): about 50% | TOP1 down-regulation (ZR/control-shRNA1 cells): minimal | TOP1 down-regulation (ZR/control-shRNA2 cells): minimal | TOP1 down-regulation (parental MCF7 cells): minimal
